Legend:
[1] = test system: chemokine, cytokine and TLR pathway mRNA expression in the ankles; assay: Quantitative RT-PCR of ankles of STA mice; assay type: in vivo, C57BL/6 mice
Description: K/BxN serum was collected from K/BxN mice at 8 weeks of age, pooled, aliquoted and stored at -20 °C. K/BxN serum-transfer arthritis (STA) model was induced by intraperitoneal (i.p.) application of 150 μL of serum at day 0. Clinical score for arthritis severity was assessed using a 0–4 point scale for each paw at various time points (0–16 total score) as described previously ([Luo et al., 2011]). 8-week old male C57BL/6 mice were purchased from Dashuo Animal Center (China, Chengdu), maintained at 25°C, and exposed to 12-h light and dark cycles. Mice were fed with standard laboratory chow and water with 1 week of acclimatization. Naive mice were used as the control group. Except the control mice, all mice were i. p. injected with 150 μL of serum, then randomly divided into the following groups and treated with different compounds daily for the consecutive 8 days: 1) STA group; 2) Solvent control group, mice were gavaged with the solvent; 3) Dexamethasone (DEX) group, mice were gavaged with 30 mg/kg DEX; 4) EFL2 group 1, mice were gavaged with 40 mg/kg EFL2; 5) EFL2 group 2, mice were intraperitoneally injected with 15 mg/kg EFL2; 6) EFL2 group 3, […] were intraperitoneally injected with 40 mg/kg EFL2. […] All animal experiments were conducted in accordance with ethical regulation for animal care and use in China.
Frozen right ankles were pulverized with liquid nitrogen and total RNA was extracted using Trizol reagent (Invitrogen). RNA was reverse transcribed into cDNA using an oligo d(T) primer. The obtained cDNA was applied for quantitative RT-PCR using SYBR Green I-dTTP (Eurogentec). Samples were analyzed in triplicate, and β-actin was used as endogenous controls. Data was analyzed using the 2^−ΔΔCt method and is expressed as “Fold change” (expression relative to housekeeping gene and normalized to reference sample).

[2] = test system: SMMC-7721 and Hep G2 cells; parameters: method as in Fan et al., 2019; settings: via STAT3 phosphorylation; ref Fan et al., 2019; cited from earlier work
[3] = STA mice day 5, EFL2 40 mg/kg i.p.

Question: What does the source list for `C=C1C(OC(=O)c2ccccc2)CC2C(C=C(C)C(=O)C3(OC(C)=O)CC(C)C(OC(=O)c4ccccc4)C3C1OC(C)=O)C2(C)C` (centres unmarked) [EFL2, Euphorbia factor L2]?
Answer: CXCL1 mRNA expression in the ankles [1, 3]: remarkably down-regulated; CXCL5 mRNA expression in the ankles [1, 3]: remarkably down-regulated; CCL3 mRNA expression in the ankles ([1]; STA mice, EFL2 15 mg/kg i.p.): only significantly decreased; CCL3 gene expression in the ankles ([1]; STA mice, EFL2 40 mg/kg i.p.): significantly reduced; mRNA expression of up-regulated TLR pathway genes (TLR7, TLR2, TLR9, Myd88, IRAK1/4, Nfkbia/ib, IRF5, Rel, Map3K7, Mapk8) in ankles ([1]; STA mice, EFL2 40 mg/kg i.p., RT-PCR): robust inhibitory effect; IL-1β mRNA expression in the ankles ([1]; STA mice, EFL2 i.p. treatment): robustly inhibited; IL-6 mRNA expression in the ankles ([1]; STA mice, EFL2 i.p. treatment): robustly inhibited; SMMC-7721 and Hep G2 cells proliferation and migration [2]: suppressing

— publication PMC8691750, “Euphorbia Factor L2 ameliorates the Progression of K/BxN Serum-Induced Arthritis by Blocking TLR7 Mediated IRAK4/IKKβ/IRF5 and NF-kB Signaling Pathways” (Frontiers in Pharmacology, 2021)
